Test results: US20260092060A1, “IS[…] ANALOGS OF 2-BROMO-LSD, LSD, ALD-52, AND 1P-LSD” (priority 2021, published 2026)
Structures can show the parent of a compound that is named as a salt.

Assay: in vitro
Conditions: for differences in half-life and intrinsic clearance compared to 2-Br-LSD: human liver microsomes, significant = 15% or more increase in half-life, CLint ratio >1.15 or <0.85; for CLint / T1/2: pooled liver microsomes 0.5 mg/mL protein, test compound 1 μM, NADPH 1 mM, 37° C., 0-45 min, LC-MS/MS; for half-life / microsomal CLint: pH 7.4
Description: Test compound (1 μM) was incubated with pooled liver microsomes.
Pooled liver microsomes were purchased from a reputable commercial supplier. Microsomes were stored at −80° C. prior to use.
A minus cofactor control incubation was included for each compound tested where 0.1 M phosphate buffer pH 7.4 was added instead of NADPH (minus NADPH). Two control compounds were included with each species. All incubations were performed singularly for each test compound.
The reactions were stopped by transferring incubate into acetonitrile at the appropriate time points, in a 1:3 ratio. The termination plates were centrifuged at 3,000 rpm for 20 min at 4° C. to precipitate the protein.
Following protein precipitation, the sample supernatants were combined in cassettes of up to 4 compounds, internal standard was added and samples analyzed using generic LCMS/MS conditions.
From a plot of ln peak area ratio (compound peak area/internal standard peak area) against time, the gradient of the line was determined. Subsequently, half-life and intrinsic clearance were calculated using the equations below: […]
Relevant control compounds were assessed, ensuring intrinsic clearance values fell within the specified limits (if available). Any failures were rejected and the assay repeated. The intrinsic clearance (CLint) of the test compound and t ½ were returned.

| SMILES | differences in half-life and intrinsic clearance compared to 2-Br-LSD | CLint [μL/min/mg protein] | T1/2 [h] | half-life (human, microsomes) [h] | microsomal CLint (human, microsomes) [µL/min/mg] | differences in half-life and intrinsic clearance compared to LSD (human, microsomes) |
| --- | --- | --- | --- | --- | --- | --- |
| [2H]c1c([2H])c2c3c(c(Br)[nH]c3c1[2H])C[C@@H]1C2=C[C@@H](C(=O)N(CC)CC)CN1C [Compound 1, (6aR,9R)-5-Bromo-N,N-diethyl-7-methyl-4,6,6a,7,8,9-hexahydroindolo[4,3-fg]quinoline-9-carboxamide-1,2,3-d3 formate] | differences | 52.6 | 0.438 | – | – | – |
| [2H]C([2H])([2H])N1C[C@H](C(=O)N(CC)CC)C=C2c3cccc4[nH]c(Br)c(c34)C[C@H]21 [Compound 2, (6aR,9R)-5-bromo-N,N-diethyl-7-(methyl-d3)-4,6,6a,7,8,9-hexahydroindolo[4,3-fg]quinoline-9-carboxamide] | differences | 49.4 | 0.468 | – | – | – |
| CCN(CC)C(=O)[C@@H]1C=C2c3cccc4[nH]c(Br)c(c34)C[C@H]2N(C)C1 [Compound 2-Br-LSD, 2-Bromolysergic acid diethylamide, reference compound] | – | 56.3 | 0.41 | – | – | – |
| [2H]C([2H])([2H])C([2H])([2H])N(C(=O)[C@@H]1C=C2c3cccc4[nH]c(Br)c(c34)C[C@H]2N(C)C1)C([2H])([2H])C([2H])([2H])[2H] [Compound 7, (6aR,9R)-5-bromo-N,N-bis(ethyl-d5)-7-methyl-4,6,6a,7,8,9-hexahydroindolo[4,3-fg]quinoline-9-carboxamide] | – | 44.6 | 0.518 | – | – | – |
| [2H]C([2H])([2H])N1C[C@H](C(=O)N(C([2H])([2H])C([2H])([2H])[2H])C([2H])([2H])C([2H])([2H])[2H])C=C2c3cccc4[nH]c(Br)c(c34)C[C@H]21 [Compound 9, (6aR,9R)-5-bromo-N,N-bis(ethyl-d5)-7-(methyl-d3)-4,6,6a,7,8,9-hexahydroindolo[4,3-fg]quinoline-9-carboxamide trifluoroacetate-d] | – | 38.8 | 0.595 | – | – | – |
| [2H]c1[nH]c2cccc3c2c1C[C@@H]1C3=C[C@@H](C(=O)N(CC)CC)CN1C [Compound 41, (6aR,9R)-N,N-diethyl-7-methyl-4,6,6a,7,8,9-hexahydroindolo[4,3-fg]quinoline-9-carboxamide-4,5-d trifluoroacetate-d] | – | 17.8 | 1.3 | – | – | – |
| [2H]c1[nH]c2c([2H])c([2H])c([2H])c3c2c1C[C@@H]1C3=C[C@@H](C(=O)N(CC)CC)CN1C [Compound 45, (6aR,9R)-N,N-diethyl-7-methyl-4,6,6a,7,8,9-hexahydroindolo[4,3-fg]quinoline-9-carboxamide-1,2,3,5-d4 triflate-d] | – | 16.7 | 1.38 | – | – | – |
| [2H]C([2H])([2H])C([2H])([2H])N(C(=O)[C@@H]1C=C2c3cccc4[nH]cc(c34)C[C@H]2N(C)C1)C([2H])([2H])C([2H])([2H])[2H] [Compound 47, (6aR,9R)-N,N-Bis(ethyl-d5)-7-methyl-4,6,6a,7,8,9-hexahydroindolo[4,3-fg]quinoline-9-carboxamide] | – | 17.2 | 1.35 | – | – | – |
| [2H]C([2H])([2H])N1C[C@H](C(=O)N(C([2H])([2H])C([2H])([2H])[2H])C([2H])([2H])C([2H])([2H])[2H])C=C2c3cccc4[nH]cc(c34)C[C@H]21 [Compound 50, (6aR,9R)-N,N-bis(ethyl-d5)-7-(methyl-d3)-4,6,6a,7,8,9-hexahydroindolo[4,3-fg]quinoline-9-carboxamide trifluoroacetate-d] | – | – | – | 1.61 | 14.3 | – |
| [2H]c1[nH]c2cccc3c2c1C[C@@H]1C3=C[C@@H](C(=O)N(C([2H])([2H])C([2H])([2H])[2H])C([2H])([2H])C([2H])([2H])[2H])CN1C [Compound 55, (6aR,9R)-N,N-Bis(ethyl-d5)-7-methyl-4,6,6a,7,8,9-hexahydroindolo[4,3-fg]quinoline-9-carboxamide-5-d trifluoroacetate-d] | – | – | – | 1.39 | 16.6 | – |
| [2H]c1[nH]c2c([2H])c([2H])c([2H])c3c2c1C[C@@H]1C3=C[C@@H](C(=O)N(C([2H])([2H])C([2H])([2H])[2H])C([2H])([2H])C([2H])([2H])[2H])CN1C [Compound 67, (6aR,9R)-N,N-Bis(ethyl-d5)-7-methyl-4,6,6a,7,8,9-hexahydroindolo[4,3-fg]quinoline-9-carboxamide-1,2,3,5-d4 triflate-d] | – | – | – | 2 | 11.5 | significant differences |
| CCN(CC)C(=O)[C@@H]1C=C2c3cccc4[nH]cc(c34)C[C@H]2N(C)C1 [LSD, Lysergic acid diethylamide, reference compound] | – | – | – | 1.42 | 16.3 | – |
| COc1ccc2c(c1)[C@]13CCCC[C@@H]1[C@H](C2)N(C)CC3 [dextromethorphan, reference compound] | – | – | – | – | 46.8 | – |
